Here are results for 91 molecules from PubChem BioAssay AID1508612.

SMILES strings stand for the structures.

A short description of this data set: passive permeability, PAMPA, ADME assay (AID 1508612). The following applies: pH 7.4, 30.0 min, 50.0 µM.

A word on the Papp: it is a coefficient for how fast a substance crosses the barrier. Low readings indicate slow passage, high ones fast passage. Molecule `CCOc1ccc(/C=C/c2nc3ccccc3n2S(=O)(=O)c2ccc(Br)cc2)cc1` returned a Papp of 926 ×10⁻⁶ cm/s.

Regarding `COc1ccc(-c2nc3ccc(C4=NNC(=O)CC4C)cc3[nH]2)cc1` (stereo unspecified), the Papp turned out to be 228 ×10⁻⁶ cm/s.

`COc1cc2c(cc1OCCCN1CCCC1)N=C(N)C21CCC1`: the Papp was 6.08 ×10⁻⁶ cm/s.

In turn, `O=C(Nc1nc(-c2ccccn2)cs1)c1cccc(S(=O)(=O)N2CCOCC2)c1` came in with a Papp of 657 ×10⁻⁶ cm/s.

As to `CNc1oc(-c2cccc(Cl)c2Cl)nc1C#N`, the Papp was determined as 505 ×10⁻⁶ cm/s.

In turn, `Cn1c2ccccc2c(=O)c2c(=O)n(-c3ccccc3)c(C3CCCCC3)nc21` yielded a Papp of 440 ×10⁻⁶ cm/s.

As for `CCOC(=O)C1=C(C)NC(=O)CC1C(=O)Nc1cc(Cl)cc(Cl)c1` (stereo unspecified), the Papp was determined as 599 ×10⁻⁶ cm/s.

`COc1cccc(CNc2ccc(S(=O)(=O)Nc3nccs3)cc2)c1N` displayed a Papp of 28.8 ×10⁻⁶ cm/s.

On to `CCNC(=O)c1noc(-c2cc(C(C)C)c(O)cc2O)c1-c1ccc(CN2CCOCC2)cc1`, for which the Papp is 335 ×10⁻⁶ cm/s.

Take `CCN1C(=O)c2ccccc2[S@](=O)c2ccc(C(=O)NCc3ccc(F)cc3)cc21`: the Papp is more than 1000 ×10⁻⁶ cm/s.

The molecule `CCc1ccc(NC(=O)c2cc3ncccn3n2)cc1` registered a Papp of 525 ×10⁻⁶ cm/s.

In turn, `CC(C)(C)c1ccc(-c2csc(N3CCC(C(N)=O)CC3)n2)cc1` had a Papp of 370 ×10⁻⁶ cm/s.

For the molecule `Cc1cc(C)nc(NC(=S)N2CCN(c3cc(C(F)(F)F)nc4ccc(C(F)(F)F)cc34)CC2)c1`, the Papp is 636 ×10⁻⁶ cm/s.

In turn, `CC[C@@H]1C(=O)N(C)c2cnc(Nc3ccc(C(=O)NC4CCN(C)CC4)cc3OC)nc2N1C1CCCC1` returned a Papp of 561 ×10⁻⁶ cm/s.

Molecule `COc1ccc(C(=O)Nc2nc(-c3ccccc3)cs2)c(OC)c1` displayed a Papp of more than 1000 ×10⁻⁶ cm/s.

The molecule `Cc1ccnc(NC(=S)N2CC[C@@H](Nc3cccc(C(F)(F)F)c3)C2)c1` returned a Papp of more than 1000 ×10⁻⁶ cm/s.

Consider `Cc1ccc(-c2c(CN3CCN(c4cccc(C(F)(F)F)c4)CC3)csc2C)cc1`, for which the Papp was less than 1 ×10⁻⁶ cm/s.

In turn, `Cc1ccc(S(=O)(=O)Nc2cnccc2C(=O)Nc2nc(-c3ccc(-c4ccccc4)cc3)cs2)cc1` registered a Papp of 5.92 ×10⁻⁶ cm/s.

For the molecule `COc1cccc(-c2noc(Nc3ccc4c(c3)OCCO4)n2)c1`, the Papp is 202 ×10⁻⁶ cm/s.

`CCOC(=O)c1ccc(-n2c(C)cc(-c3nnc4n3CCCCC4)c2C)cc1` had a Papp of 353 ×10⁻⁶ cm/s.

Consider `CC(C)c1ccccc1-c1ncc(F)c(NC(C)(C)c2ccc(-n3ccnn3)cc2)n1`, for which the Papp is 672 ×10⁻⁶ cm/s.

Molecule `Cc1cccc(-n2cnc3cc(C(=O)N4CCCCCC4)ccc32)c1` came in with a Papp of more than 1000 ×10⁻⁶ cm/s.

As for `CCC(C)N(C)C(=O)c1cc2ccccc2c(-c2ccccc2Cl)n1` (stereo unspecified), the Papp is more than 1000 ×10⁻⁶ cm/s.

Regarding `O=C1CCc2cc(S(=O)(=O)Nc3ccc(F)c(Cl)c3)ccc2N1`, the Papp was determined as 460 ×10⁻⁶ cm/s.

`CCOP(=O)(Cc1ccc(C(=O)Nc2ccc(Br)cc2C#N)cc1)OCC` yielded a Papp of 255 ×10⁻⁶ cm/s.

`Nc1ccccc1OCCn1c(CCNC(=O)C2CCCCC2)nc2ccccc21` yielded a Papp of 746 ×10⁻⁶ cm/s.

`C[C@@]12O[C@@H](C[C@]1(O)CO)n1c3ccccc3c3c4c(c5c6ccccc6n2c5c31)CNC4=O` yielded a Papp of 7.06 ×10⁻⁶ cm/s.

`NC(=O)c1ccc(-c2ncc3cnc(-c4cccc(F)c4)cn23)cc1` yielded an apparent permeability coefficient (Papp) of 480 ×10⁻⁶ cm/s.

Molecule `CCOc1ccccc1C(=O)NC1CCN(c2cc(C)cc(C)c2)C1=O` (stereo unspecified) registered a Papp of more than 1000 ×10⁻⁶ cm/s.

`COc1ccc(-n2nc(C3CCN(C(=O)c4ccccc4)CC3)[nH]c2=O)cc1`: the Papp is 331 ×10⁻⁶ cm/s.

In the case of `C[C@H]1CN(C(=O)Nc2ccc(F)cc2)C[C@@H]1c1nc(-c2ccccc2)no1`, the Papp is more than 1000 ×10⁻⁶ cm/s.

Regarding `CCOC(=O)[C@H]1O[C@H]1C(=O)N[C@@H](CC(C)C)C(=O)NCCC(C)C`, the Papp came out at 89 ×10⁻⁶ cm/s.

On to `CC(C)NC(=O)c1nc(-c2ccc(Cl)nc2)c2cnccn12`, for which the Papp worked out at 723 ×10⁻⁶ cm/s.

`COc1ccccc1-c1cc2c(ccn2C)c(C(=O)NCC2CCN(C)C(=O)C2)n1` (stereo unspecified) returned a Papp of 317 ×10⁻⁶ cm/s.

The molecule `COC(=O)c1ccc(NC(=O)c2nc3ccccc3n(C)c2=O)cc1` showed a Papp of 350 ×10⁻⁶ cm/s.

`COc1ccc2[nH]c3c(c2c1)CCNC31CCN(S(=O)(=O)c2c(C)noc2C)CC1` returned a Papp of 79 ×10⁻⁶ cm/s.

`O=[N+]([O-])c1ccc(CNc2ccc([S+](=O)([O-])Nc3nccs3)cc2)c(O)c1` displayed a Papp of 1.2 ×10⁻⁶ cm/s.

`CCCCCn1c(=O)[nH]c2cc(C(=O)NCCCN3CCCCC3)ccc2c1=O` came in with a Papp of 27.5 ×10⁻⁶ cm/s.

Molecule `COc1ccccc1-c1[nH]nc2ncc(-c3ccc(C)cc3)nc12` displayed a Papp of 76.2 ×10⁻⁶ cm/s.

As for `COc1cc(C(=S)N2CCN(CCO)CC2)ccc1OCc1ccc(C)cc1`, the Papp was more than 1000 ×10⁻⁶ cm/s.

`CCn1cc(CNC(=O)c2cc(-c3ccc(C)cc3)nc3ccc(Br)cc23)c(C)n1` displayed a Papp of 5.55 ×10⁻⁶ cm/s.

In turn, `COc1ccc(C[C@@H]2C(=O)N[C@H](C)C(=O)N(C)[C@@H]3C(=O)N(C)[C@@H](Cc4ccc(O)c(c4)Oc4ccc(cc4)[C@H]3O)C(=O)N[C@@H](C)C(=O)N[C@H](C)C(=O)N2C)cc1` returned a Papp of 4.5 ×10⁻⁶ cm/s.

`COc1cccc(CNc2ccc(S(=O)(=O)Nc3ncc(-c4ccccc4)s3)cc2)c1O` came in with a Papp of 36.6 ×10⁻⁶ cm/s.

For the molecule `O=C(Nc1nnc(-c2ccco2)o1)c1ccc(Cl)cc1`, the Papp came out at 24.2 ×10⁻⁶ cm/s.

As for `CC1CCC(n2c3cnccc3c3cnc(Nc4ccc5c(n4)CCN(C(=O)CO)C5)nc32)CC1` (stereo unspecified), the Papp is 135 ×10⁻⁶ cm/s.

The molecule `COc1ccc(OC)c(-c2cc(C(=O)N3CCN(c4ncccn4)CC3)c3ccccc3n2)c1` came in with a Papp of more than 1000 ×10⁻⁶ cm/s.

Turning to `CCCNC(=O)c1ccc2c(c1)ncn2-c1cc(C)cc(C)c1`, the Papp is more than 1000 ×10⁻⁶ cm/s.

Consider `CC1(C)C(=O)NC2=C1C(=O)C(=O)c1ccccc12`, for which the Papp worked out at 12.5 ×10⁻⁶ cm/s.

`Fc1ccc(Nc2nc(-c3ccncc3)nc3ccccc23)cc1F` returned a Papp of 376 ×10⁻⁶ cm/s.

For the molecule `COc1nccc(-c2nc(Nc3ccc(F)c(F)c3)c3ccccc3n2)c1Cl`, the Papp amounted to 30.3 ×10⁻⁶ cm/s.

In turn, `Cc1ccc(S(=O)(=O)Nc2cnccc2C(=O)Nc2nc(-c3cccc(Cl)c3)cs2)cc1` registered a Papp of 38 ×10⁻⁶ cm/s.

In turn, `Fc1ccc(Nc2nc(-c3ccncc3)ncc2-c2ccccc2)cc1F` yielded a Papp of less than 1 ×10⁻⁶ cm/s.

Molecule `CC(=O)c1ccc(N2CCN(S(=O)(=O)c3ccc4[nH]c(=O)[nH]c4c3)CC2)cc1` yielded a Papp of less than 1 ×10⁻⁶ cm/s.

In turn, `CCc1cccc(NS(=O)(=O)c2ccc3c(c2)CC(C)N3C(=O)C2CC2)c1` (stereo unspecified) yielded a Papp of more than 1000 ×10⁻⁶ cm/s.

In turn, `CC(O)(C#Cc1ccc2c(c1)N(c1nc(N)ncc1Cl)CC2)c1nccs1` (stereo unspecified) came in with a Papp of 516 ×10⁻⁶ cm/s.

Molecule `Cc1ccc(-c2nnc(Nc3ccc(Br)cc3)c3ccccc23)cc1S(=O)(=O)N1CCN(C)CC1` returned a Papp of more than 1000 ×10⁻⁶ cm/s.

`COCCn1ccc2c(C3=CCOCC3)nc(-c3ccc4c(c3)CNC4=O)cc21` came in with a Papp of 71.7 ×10⁻⁶ cm/s.

`CCn1c(=O)cc(OCC(=O)N2CCN(c3cccc(Cl)c3)CC2)c2ccccc21` came in with a Papp of 941 ×10⁻⁶ cm/s.

The molecule `Cc1nn2c(c1-c1ccccc1-c1ccccc1)N(CCC(C)C)CCC2` came in with a Papp of 532 ×10⁻⁶ cm/s.

For `CN1CCc2cc3c(cc2C1)OCO3`, the Papp is 316 ×10⁻⁶ cm/s.

With `c1ccc(Nc2cc(-c3ccoc3)ncn2)cc1`, the Papp is more than 1000 ×10⁻⁶ cm/s.

`CC(=O)c1c(C)[nH]c(C(=O)Nc2cccc(S(=O)(=O)N3CCOCC3)c2)c1C` had a Papp of 475 ×10⁻⁶ cm/s.

The molecule `COc1ccc(-c2csc(N3CCC(C(N)=O)CC3)n2)cc1OC` gave a Papp of 270 ×10⁻⁶ cm/s.

On to `NC(=O)C1CCN(c2ncc(-c3cccc(N4CCCCC4)c3)s2)CC1`, for which the Papp is 924 ×10⁻⁶ cm/s.

Take `CCOc1cccc(C(=O)Nc2nc3c(s2)CC(C(C)(C)C)CC3)c1` (stereo unspecified): the Papp is less than 1 ×10⁻⁶ cm/s.

`CSc1ccc(/C=C/c2nc3ccccc3n2S(=O)(=O)c2ccc(Br)cc2)cc1` returned a Papp of more than 1000 ×10⁻⁶ cm/s.

Molecule `COc1cc(Cl)cn2c(-c3cccc(NC4CNC4)n3)cnc12` had a Papp of 6.1 ×10⁻⁶ cm/s.

Turning to `CC(=O)c1c(C)[nH]c(C(=O)Nc2ccc(C)c(S(=O)(=O)N3CCCCCC3)c2)c1C`, the Papp turned out to be 792 ×10⁻⁶ cm/s.

`Cc1ccc(S(=O)(=O)Nc2ccccc2C(=O)Nc2ncc(-c3ccccc3)s2)cc1`: the Papp is 125 ×10⁻⁶ cm/s.

Take `COc1ccc(OC)c(Nc2c3c(nc4ccccc24)CCC3)c1`: the Papp was more than 1000 ×10⁻⁶ cm/s.

Molecule `Cc1ccc(-n2nc(C)c3c(-c4ccc(O)c(O)c4)c(C#N)c(N)nc32)cc1C` showed a Papp of 187 ×10⁻⁶ cm/s.

Molecule `Nc1nc(N)c2c(OCC3CCN(Cc4ccccc4F)CC3)cccc2n1` displayed a Papp of 938 ×10⁻⁶ cm/s.

In the case of `NC(=O)C1CCN(c2ncc(-c3ccc4c(c3)OCO4)s2)CC1`, the Papp is 692 ×10⁻⁶ cm/s.

The molecule `CCOC(=O)c1[nH]c(C)c(CCC(=O)N2CCN(c3cc(Cl)ccc3C)CC2)c1C` registered a Papp of more than 1000 ×10⁻⁶ cm/s.

`COc1cccc(CNc2ccc(S(=O)(=O)Nc3cc(C)on3)cc2)c1O` came in with a Papp of 62.9 ×10⁻⁶ cm/s.

Consider `COc1ccc(-n2c(C)cc(C3=NNC(=NC4CC4)SC3)c2C)cc1`, for which the Papp was 610 ×10⁻⁶ cm/s.

Molecule `CC(C)N(CCC(=O)c1ccc2ccccc2c1)Cc1ccccc1` had a Papp of more than 1000 ×10⁻⁶ cm/s.

With `N#Cc1ccc(-c2csc(N3CCC(C(N)=O)CC3)n2)cc1`, the Papp came out at 406 ×10⁻⁶ cm/s.

`CCN1CCN(c2ccc3cc(S(=O)(=O)N4CCOCC4)ccc3n2)CC1`: the Papp is more than 1000 ×10⁻⁶ cm/s.

Regarding `Nc1nc(Nc2ccc(S(N)(=O)=O)cc2)nn1C(=O)c1c(F)cccc1F`, the Papp is 1.61 ×10⁻⁶ cm/s.

Consider `Clc1ccc(C2(c3ccc(-c4cn[nH]c4)cc3)CCNCC2)cc1`, for which the Papp was 40.5 ×10⁻⁶ cm/s.

As to `Fc1cc(Nc2nc(-c3ccncc3)nc3ccccc23)ccc1-n1cncn1`, the Papp was 171 ×10⁻⁶ cm/s.

Regarding `COC[C@@H]1CN(C(=O)c2n[nH]c3ccccc23)C[C@H]1c1nc(C)no1`, the Papp came out at 66.8 ×10⁻⁶ cm/s.

As for `COc1cc(Cl)c(C)cc1NC(=O)CSc1ncc(S(=O)(=O)c2ccc(C(C)(C)C)cc2)c(=O)[nH]1`, the Papp stood at 16.2 ×10⁻⁶ cm/s.

Regarding `NC(=O)C1CCN(c2ncc(-c3cccc(N4CCOCC4)c3)s2)CC1`, the Papp worked out at 374 ×10⁻⁶ cm/s.

`COc1cccc(CNc2ccc(S(=O)(=O)Nc3nc4ccccc4[nH]3)cc2)c1O`: the Papp was found to be 30.8 ×10⁻⁶ cm/s.

The molecule `NC(=O)C1CCN(c2cc(-c3ccc4c(c3)OCCCO4)ncn2)CC1` came in with a Papp of 37 ×10⁻⁶ cm/s.

`Cc1cccc2c1NC(=O)/C2=C/c1cc(Cl)c(O)c(Cl)c1`: the Papp amounted to 66.3 ×10⁻⁶ cm/s.

`Cn1c(=O)cc(C(=O)NC2CCCc3c2[nH]c2c(Cl)cccc32)c2ccccc21` (stereo unspecified) yielded a Papp of 68 ×10⁻⁶ cm/s.

With `COC(=O)c1ccc(O)c2ncc(N3CCN(C)CC3)cc12`, the apparent permeability (Papp) was found to be 845 ×10⁻⁶ cm/s.

Regarding `CO[C@@H]1/C=C\O[C@@]2(C)Oc3c(C)c(O)c4c(c3C2=O)C(=N[C@H]2CC[C@H](O)O[C@@H]2C)C=C(NC(=O)/C(C)=C\C(=O)[C@@H]2C[C@@H]2[C@@H](O)[C@H](C)[C@@H](O)[C@H](C)[C@H](OC(C)=O)[C@@H]1C)C4=O`, the Papp stood at 2.33 ×10⁻⁶ cm/s.
